Data on ten compounds can be found in patent US10894808B2, “Polypeptide ligands specific for plasma kallikrein” (BicycleRD Limited, priority 2013, dated 2021).

Structures are written as SMILES. Read-outs that look alike come from different tables or passages of the source. *1 amine or outer side, *2 acyl side, *3 side chain or, on linkers, in order; H or OH if unused. Where a SMILES comes first, the peptide text is derived from it. Bridges are numbered along the chain shown (N, C = ends). TBMB = c1c(C[*:1])cc(C[*:3])cc1C[*:2]

For assay [1], the target named is T1, biotinylated human plasma kallikrein (Homo sapiens, UniProt P03952).
T1 construct: The human kallikrein is non-recombinant and therefore the heavy chain is present; purchased Innovative Research, Novi, Mich., USA IHPKA; host or cells: from human plasma
T1 sequence (P03952 391-638 limits assumed): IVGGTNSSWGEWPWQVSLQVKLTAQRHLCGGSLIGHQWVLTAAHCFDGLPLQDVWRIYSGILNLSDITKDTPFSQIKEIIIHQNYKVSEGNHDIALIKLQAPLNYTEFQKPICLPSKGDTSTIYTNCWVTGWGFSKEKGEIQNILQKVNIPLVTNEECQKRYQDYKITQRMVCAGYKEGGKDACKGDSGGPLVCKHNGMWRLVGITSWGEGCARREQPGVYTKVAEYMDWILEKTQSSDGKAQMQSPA
T1 sequence (P03952 20-390 partner limits assumed): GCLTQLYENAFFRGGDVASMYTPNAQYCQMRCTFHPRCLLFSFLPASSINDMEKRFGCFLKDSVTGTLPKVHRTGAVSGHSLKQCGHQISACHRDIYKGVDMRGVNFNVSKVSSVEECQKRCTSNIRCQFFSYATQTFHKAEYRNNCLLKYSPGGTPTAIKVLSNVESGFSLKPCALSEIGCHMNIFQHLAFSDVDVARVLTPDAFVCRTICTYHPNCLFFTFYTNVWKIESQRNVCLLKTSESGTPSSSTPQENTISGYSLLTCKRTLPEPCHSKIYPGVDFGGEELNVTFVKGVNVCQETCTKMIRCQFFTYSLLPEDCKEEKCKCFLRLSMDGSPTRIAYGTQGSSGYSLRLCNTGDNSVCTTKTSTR
In words: Homogeneous plate-based screening assay of TBMB-cyclised phage clones (signal:background). Format: binding. As to the method: Assay of binding of individual clones: Library transformant colonies were picked at random and grown as individual cultures in 2TY broth containing selective antibiotic. The picked colonies were DNA-sequenced using a QIAgen PyroMark Q96 DNA sequencer to reveal the amino-acid substitution present in each clone. Where isolated, a clone of each unique substitution was assayed for human plasma kallikrein binding as follows. The phage-containing supernatant was harvested from the culture and phage were cyclised with tris bromomethyl benzene (TBMB) based on the methods of Heinis et al (Nature Chemical Biology vol. 5 pp 502-507 (2009)). The purified phage from this process were assayed for binding to biotinylated human plasma kallikrein using a homogeneous plate-based binding assay; assay read-out measured on a BMG Labtech Pherastar FS plate reader. The quantitative binding data from triplicate assay samples was averaged (mean) and expressed as signal:background (where background was a sample assayed with no target material). The signal:background was expressed as a % of the parallel parent sample. Error bars denote standard deviation of the mean. Assays shown are representative of at least 2 independent experiments. The assay data was correlated with the peptide sequences. Substitutions marked in grey were not tested (a clone was not isolated from the random library sampling). A sample of a non-binding (arbitrary) bicycle was assayed in parallel to illustrate the assay baseline.
Assay of binding of individual clones: Library transformant colonies, or selection output colonies, were picked and grown as individual cultures in 2TY broth containing selective antibiotic. The picked colonies were DNA-sequenced using a QIAgen PyroMark Q96 DNA sequencer to reveal the amino-acid substitution present in each clone, and were assayed for human plasma kallikrein binding as follows. The phage-containing supernatant was harvested from the culture and phage were cyclised with tris-bromomethylbenzene (TBMB) based on the methods of Heinis et al (Nature Chemical Biology vol. 5 pp 502-507 (2009)). The purified phage from this process were assayed for binding to biotinylated human plasma kallikrein using a homogeneous plate-based binding assay; assay read-out measured on a BMG Labtech Pherastar FS plate reader. The quantitative binding data from duplicate assay samples was averaged (mean) and expressed as signal:background. Assay data shown is representative of at least 2 independent experiments. The assay data was correlated with the peptide sequences.

The next assay concerns the target T2, human plasma kallikrein (Homo sapiens, UniProt P03952).
T2 construct: purchased Stratech, UK
In words: Functional enzyme assay, inhibition of human plasma kallikrein (Z-PheArg-AMC substrate). Format: biochemical. Particulars: read-out: Human (Ki). As to the method: (§1) Functional enzyme assays were conducted in 10 mM Tris HCl, 150 mM NaCl, 10 mM MgCl2, 1 mM CaCl2 and 1 mg/mL BSA (all Sigma UK) pH 7.4 at 25° C. in solid black 96 or 384 well plates. […] Release of AMC was measured using a Pherastar FS (BMG Labtech), excitation 360 nm, emission 460 nm. The rate of the linear phase of the reaction, typically 5 to 45 minutes, was calculated in MARS data analysis software (BMG labtech). The rate was then used to calculate the IC50 and Ki in Prism (GraphPad). A four parameter inhibition non-linear regression equation was used to calculate the IC50. […]
(§2) Peptides were dissolved as the TFA-salts in their powder form, and stock solutions were usually prepared in water. All solutions were centrifuged and filtered ([…] syringe filters) prior to absorption measurement at 280 nm. Extinction coefficients were calculated based on the Trp/Tyr content of the peptide, and that of TMB (the TMB core, when contained in a peptide, has an extinction coefficient of ˜300 M^−1 cm^−1).

The next assay deals with T3, rat plasma kallikrein (Rattus norvegicus, UniProt P14272).
T3 construct: polyhistidine tag followed by proTEV cleavage site (pro-peptide) (N, cleaved yes); made in house; host or cells: HEK-293 (suspension-adapted), pEXPR-IBA42 vector
T3 sequence (P14272 391-638 limits assumed): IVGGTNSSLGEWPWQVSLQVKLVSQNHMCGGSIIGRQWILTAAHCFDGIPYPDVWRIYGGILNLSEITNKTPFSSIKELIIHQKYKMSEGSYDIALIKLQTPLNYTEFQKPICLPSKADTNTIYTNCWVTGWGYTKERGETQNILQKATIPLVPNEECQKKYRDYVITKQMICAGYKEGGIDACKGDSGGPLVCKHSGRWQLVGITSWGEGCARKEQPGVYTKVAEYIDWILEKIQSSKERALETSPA
In words: Functional enzyme assay, inhibition of rat plasma kallikrein (Z-PheArg-AMC substrate). Particulars: read-out: Rat (Ki). The format is biochemical. As for the experimental part:
as §1, §2

For a further assay, the target named is rabbit kallikrein (Oryctolagus cuniculus, UniProt G1T127). In words: Functional enzyme assay, inhibition of rabbit kallikrein. The following applies: read-out: Rabbit (Ki). The format is biochemical. As to the method:
as §1, §2

Where [2] appears, read: Table 3, 06-254 affinity-matured library.
The mark [3] stands for this setting: Table 4, 06-259 affinity-matured library.

rabbit kallikrein, sequence (G1T127 20-629): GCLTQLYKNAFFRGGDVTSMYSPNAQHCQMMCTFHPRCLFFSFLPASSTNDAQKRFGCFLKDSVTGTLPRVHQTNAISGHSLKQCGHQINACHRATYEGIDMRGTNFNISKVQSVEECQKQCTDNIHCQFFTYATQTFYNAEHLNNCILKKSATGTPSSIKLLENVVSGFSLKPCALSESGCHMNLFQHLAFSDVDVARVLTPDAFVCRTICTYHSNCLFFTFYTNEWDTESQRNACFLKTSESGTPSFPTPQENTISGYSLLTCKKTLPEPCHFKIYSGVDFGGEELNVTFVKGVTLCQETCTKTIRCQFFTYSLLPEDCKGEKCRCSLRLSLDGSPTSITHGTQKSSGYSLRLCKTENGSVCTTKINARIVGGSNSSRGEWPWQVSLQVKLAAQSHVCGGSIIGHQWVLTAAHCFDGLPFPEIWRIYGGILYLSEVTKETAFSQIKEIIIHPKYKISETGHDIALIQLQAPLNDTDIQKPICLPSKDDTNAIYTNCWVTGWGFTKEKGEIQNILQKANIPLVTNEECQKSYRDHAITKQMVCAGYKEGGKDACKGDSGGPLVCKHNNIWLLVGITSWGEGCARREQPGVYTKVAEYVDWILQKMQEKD
T2 sequence (P03952 391-638 limits assumed): as the sequence (P03952 391-638 limits assumed) above
T2 sequence (P03952 20-390 partner limits assumed): as the sequence (P03952 20-390 partner limits assumed) above

As for `CC[C@H](C)[C@@H]1NC(=O)[C@H](CC(C)C)NC(=O)[C@H](CC(=O)O)NC(=O)[C@@H]2CSCc3cc(cc(c3)CSC[C@@H](C(=O)N[C@@H](C)C(N)=O)NC(=O)[C@H]([C@@H](C)O)NC(=O)[C@H]([C@@H](C)O)NC(=O)[C@H](CCC(=O)O)NC1=O)CSC[C@H](NC(=O)[C@H](C)N)C(=O)N[C@@H](CCCCN)C(=O)N[C@@H](CC(N)=O)C(=O)N[C@@H](Cc1ccc(O)cc1)C(=O)N[C@@H](Cc1c[nH]c3ccccc13)C(=O)N[C@@H](CC(N)=O)C(=O)N1CCC[C@H]1C(=O)N2` [06-254-01] (H-ACKNYWNPCDLIETTCA-NH2; linker 2-9-16 via TBMB; N-terminus and C-terminus assumed), the “S:B (Signal:Background)” value in assay [1] (setting [2]) is given as 61.90.

Consider `CC[C@H](C)[C@@H]1NC(=O)[C@H](CC(C)C)NC(=O)[C@H](CC(=O)O)NC(=O)[C@@H]2CSCc3cc(cc(c3)CSC[C@@H](C(=O)N[C@@H](C)C(N)=O)NC(=O)[C@@H]3CCCN3C(=O)CNC(=O)[C@@H]3CCCN3C1=O)CSC[C@H](NC(=O)[C@H](C)N)C(=O)N[C@@H](CCCCN)C(=O)N[C@@H](CC(N)=O)C(=O)N[C@@H](Cc1ccc(O)cc1)C(=O)N[C@@H](Cc1c[nH]c3ccccc13)C(=O)N[C@@H](CC(N)=O)C(=O)N1CCC[C@H]1C(=O)N2` [06-254-02] (H-ACKNYWNPCDLIPGPCA-NH2; linker 2-9-16 via TBMB; N-terminus assumed), for which, on human plasma kallikrein (Table 5), the Ki was determined as 0.5 nM. In assay [1] (setting [2]), the “S:B (Signal:Background)” value is 46.65.

Turning to `CSCC[C@@H]1NC(=O)[C@H](C(C)C)NC(=O)[C@H](CC(C)C)NC(=O)[C@H](CC(=O)O)NC(=O)[C@@H]2CSCc3cc(cc(c3)CSC[C@@H](C(=O)N[C@@H](C)C(N)=O)NC(=O)[C@H]([C@@H](C)O)NC(=O)[C@H](CC(=O)O)NC1=O)CSC[C@H](NC(=O)[C@H](C)N)C(=O)N[C@@H](CCCCN)C(=O)N[C@@H](CC(N)=O)C(=O)N[C@@H](Cc1ccc(O)cc1)C(=O)N[C@@H](Cc1c[nH]c3ccccc13)C(=O)N[C@@H](CC(N)=O)C(=O)N1CCC[C@H]1C(=O)N2` [06-254-03] (H-ACKNYWNPCDLVMDTCA-NH2; linker 2-9-16 via TBMB; N-terminus and C-terminus assumed), at human plasma kallikrein (Table 5), the Ki is 1.4 nM. The “S:B (Signal:Background)” value in assay [1] (setting [2]) came to 56.70.

In the case of `CC(C)[C@@H]1NC(=O)[C@H](CCCNC(=N)N)NC(=O)[C@@H]2CSCc3cc(cc(c3)CSC[C@@H](C(=O)N[C@@H](C)C(N)=O)NC(=O)[C@H](Cc3ccc(O)cc3)NC(=O)[C@H](CCCNC(=N)N)NC(=O)[C@H]([C@@H](C)O)NC(=O)[C@H](CC(=O)O)NC1=O)CSC[C@H](NC(=O)[C@H](C)N)C(=O)N[C@@H](CCC(N)=O)C(=O)N[C@@H](CCCCN)C(=O)N[C@@H](Cc1ccccc1)C(=O)N[C@@H](CCC(=O)O)C(=O)N[C@@H](CO)C(=O)N[C@@H](CCCNC(=N)N)C(=O)N2` [06-256] (H-ACQKFESRCRVDTRYCA-NH2; linker 2-9-16 via TBMB; N-terminus assumed), the Ki at human plasma kallikrein (Table 1, synthetic peptides) turned out to be 6.6 nM; at rat plasma kallikrein (Table 1, synthetic peptides) it was 2780 nM; at rabbit kallikrein (Table 1, synthetic peptides), 1460 nM; at rabbit kallikrein (Table 5), 1460 nM.

Take `CSCC[C@@H]1NC(=O)[C@H](CCCNC(=N)N)NC(=O)[C@H](CCCNC(=N)N)NC(=O)[C@H](Cc2ccc(O)cc2)NC(=O)[C@@H]2CSCc3cc(cc(c3)CSC[C@H](NC(=O)[C@H](C)N)C(=O)N3CCC[C@H]3C(=O)N[C@@H](CC(C)C)C(=O)N[C@@H](CO)C(=O)N[C@@H](CC(=O)O)C(=O)N[C@@H]([C@@H](C)O)C(=O)N[C@@H](CC(C)C)C(=O)N2)CSC[C@@H](C(=O)N[C@@H](C)C(N)=O)NC(=O)[C@@H]2CCCN2C(=O)[C@@H]2CCCN2C1=O` [06-257] (H-ACPLSDTLCYRRMPPCA-NH2; linker 2-9-16 via TBMB; N-terminus assumed): the Ki came to 36.1 nM at human plasma kallikrein (Table 1, synthetic peptides) and 159 nM on rat plasma kallikrein (Table 1, synthetic peptides).

For `CC(C)C[C@@H]1NC(=O)[C@H](CC(N)=O)NC(=O)[C@H](CCC(=O)O)NC(=O)[C@H](Cc2c[nH]cn2)NC(=O)[C@H](CC(C)C)NC(=O)[C@@H]2CSCc3cc(cc(c3)CSC[C@H](NC(=O)[C@H](C)N)C(=O)N3CCC[C@H]3C(=O)N[C@@H](Cc3ccc(O)cc3)C(=O)N3CCC[C@H]3C(=O)N[C@@H](Cc3ccccc3)C(=O)N[C@@H](CCCNC(=N)N)C(=O)N2)CSC[C@@H](C(=O)N[C@@H](C)C(N)=O)NC1=O` [06-258] (H-ACPYPFRCLHENLCA-NH2; linker 2-8-14 via TBMB; N-terminus and C-terminus assumed), the Ki on human plasma kallikrein (Table 1, synthetic peptides) came out at 4.3 nM; on rat plasma kallikrein (Table 1, synthetic peptides), 5.2 nM; on rabbit kallikrein (Table 1, synthetic peptides) it was 331 nM; at rabbit kallikrein (Table 5), 331 nM.

Regarding `CC(C)[C@@H]1NC(=O)[C@H](CO)NC(=O)[C@@H]2CSCc3cc(cc(c3)CSC[C@@H](C(=O)N[C@@H](C)C(N)=O)NC(=O)[C@H](C(C)C)NC(=O)[C@@H]3CCCN3C(=O)[C@@H]3CCCN3C(=O)[C@H](CCC(=O)O)NC1=O)CSC[C@H](NC(=O)[C@H](C)N)C(=O)N[C@@H](CC(N)=O)C(=O)N[C@@H](Cc1c[nH]cn1)C(=O)N[C@@H](Cc1c[nH]c3ccccc13)C(=O)N[C@@H](CC(N)=O)C(=O)N1CCC[C@H]1C(=O)N[C@@H](Cc1c[nH]c3ccccc13)C(=O)N2` [06-259-01] (H-ACNHWNPWCSVEPPVCA-NH2; linker 2-9-16 via TBMB; N-terminus assumed), the “S:B (Signal:Background)” value in assay [1] (setting [3]) turned out to be 51.67.

Regarding `CC[C@H](C)[C@@H]1NC(=O)[C@@H]2CCCN2C(=O)[C@@H]2CCCN2C(=O)[C@H](CC(=O)O)NC(=O)[C@H](C)NC(=O)[C@H](CO)NC(=O)[C@@H]2CSCc3cc(cc(c3)CSC[C@@H](C(=O)N[C@@H](C)C(N)=O)NC1=O)CSC[C@H](NC(=O)[C@H](C)N)C(=O)N[C@@H](CC(N)=O)C(=O)N[C@@H](Cc1c[nH]cn1)C(=O)N[C@@H](Cc1c[nH]c3ccccc13)C(=O)N[C@@H](CC(N)=O)C(=O)N1CCC[C@H]1C(=O)N[C@@H](Cc1c[nH]c3ccccc13)C(=O)N2` [06-259-03] (H-ACNHWNPWCSADPPICA-NH2; linker 2-9-16 via TBMB; N-terminus and C-terminus assumed), the figures for the Ki at human plasma kallikrein (Table 5) and at rat plasma kallikrein (Table 5) were 1.4 nM and 8.2 nM, respectively. Further, the “S:B (Signal:Background)” value in assay [1] (setting [3]) was determined as 49.82.

In the case of `CC(C)[C@@H]1NC(=O)[C@H](Cc2c[nH]c3ccccc23)NC(=O)CNC(=O)[C@@H]2CSCc3cc(cc(c3)CSC[C@@H](C(=O)N[C@@H](C)C(N)=O)NC(=O)[C@H](Cc3ccccc3)NC(=O)CNC(=O)CNC1=O)CSC[C@H](NC(=O)[C@H](C)N)C(=O)N[C@@H](CC(N)=O)C(=O)N[C@@H]([C@@H](C)O)C(=O)N[C@@H](Cc1c[nH]c3ccccc13)C(=O)N[C@@H](CC(N)=O)C(=O)N1CCC[C@H]1C(=O)N[C@@H](Cc1c[nH]c3ccccc13)C(=O)N2` [06-259] (H-ACNTWNPWCGWVGGFCA-NH2; linker 2-9-16 via TBMB; N-terminus and C-terminus assumed), the Ki at human plasma kallikrein (Table 1, synthetic peptides) amounted to 20.1 nM; on rat plasma kallikrein (Table 1, synthetic peptides), 6.2 nM. Besides, the “S:B (Signal:Background)” value in assay [1] (setting [3]) stood at 1.17.

With `CC[C@H](C)[C@@H]1NC(=O)[C@H](CC(=O)O)NC(=O)[C@@H]2CCCN2C(=O)[C@H](Cc2ccc(O)cc2)NC(=O)[C@H](Cc2ccc(O)cc2)NC(=O)[C@H](C(C)C)NC(=O)[C@@H]2CSCc3cc(cc(c3)CSC[C@@H](C(=O)N[C@@H](C)C(N)=O)NC1=O)CSC[C@H](NC(=O)[C@H](C)N)C(=O)N[C@@H](CC(N)=O)C(=O)N[C@@H](CC(N)=O)C(=O)N[C@@H](Cc1ccccc1)C(=O)N1CCC[C@H]1C(=O)N[C@@H](Cc1ccccc1)C(=O)N[C@@H](CCCNC(=N)N)C(=O)N2` [06-261] (H-ACNNFPFRCVYYPDICA-NH2; linker 2-9-16 via TBMB; N-terminus assumed), the Ki on human plasma kallikrein (Table 1, synthetic peptides) is 0.4 nM; at rat plasma kallikrein (Table 1, synthetic peptides), 4 nM; at rabbit kallikrein (Table 1, synthetic peptides), 1040 nM; on rabbit kallikrein (Table 5), 1040 nM.

By Ki is commonly meant the equilibrium dissociation constant of an inhibitor or competing ligand from its target.
